Test results taken from patent publication US20060281755A1, “SYNERGISTIC MODULATION OF FLT3 KINASE USING AMINOPYRIMIDINES KINASE MODULATORS” (priority 2005, published 2006).

Legend:
MV4-11 cells = experiment: Annexin V staining (apoptosis) in MV4-11 cells; format: cell-based, human; conditions: combination (fixed ratio 4:1) versus agent alone, 48 hours
Text: The ultimate goal of treatment for FLT3 related disorders is to kill the disease causative cells and to cause regression of disease. […] Annexin V binding to phosphotidyl serine that has translocated from the inner leaflet of the plasma membrane to the outer leaflet of the plasma membrane and is a well established way to measure apoptosis of cells. See van Engeland M., L. J. Nieland, et al. (1998) “Annexin V-affinity assay: a review on an apoptosis detection system based on phosphatidylserine exposure.” Cytometry. 31(1):1-9.
After the compound incubations, treated cells were harvested and stained with Annexin V-PE and 7-AAD using the Guava Nexin apoptosis kit according to the protocol in the Biological Activity Measurements section hereafter. Annexin V staining peaks at 60% because cells late in apoptosis begin to fall apart and are considered debris. […] Statistical analysis using the above described method of Chou and Talalay was also performed to determine the synergy of the combination. […] The magnitude of the synergistic induction of apoptosis of MV4-11 cells by the combination of an FTI and a FLT3 inhibitor could not be predicted by those skilled in the art. […]
Annexin V Staining. […] All annexin positive cells were considered apoptotic and percent Annexin positive cells was calculated.

MV4-11 tumor xenografts = experiment: MV4-11 human tumor xenograft regression model in nude mice; format: in vivo; conditions: 50 mg/kg bid oral
Procedure: Female athymic nude mice (CD-1, nu/nu, 9-10 weeks old) were obtained from Charles River Laboratories (Wilmington, Mass.) and were maintained according to NIH standards. All mice were group housed (5 mice/cage) under clean-room conditions in sterile micro-isolator cages on a 12-hour light/dark cycle in a room maintained at 21-22° C. and 40-50% humidity. Mice were fed irradiated standard rodent diet and water ad libitum. All animals were housed in a Laboratory Animal Medicine facility that is fully accredited by the American Association for Assessment and Accreditation of Laboratory Animal Care (AAALAC). […]
The time course of the inhibitory effects of FLT3 inhibitor compounds on the growth of MV4-11 tumors is illustrated in FIG. 1. […] Percent inhibition (% 1) of tumor growth was calculated versus tumor growth in the vehicle-treated Control group on the last study day. Statistical significance versus Control was determined by Analysis of Variance (ANOVA) followed by Dunnett's t-test: * p<0.05; ** p<0.01.
(See FIG. 2). […] Percent Inhibition was calculated versus the mean tumor weight in the vehicle-treated control group. Statistical significance versus Control was determined by ANOVA followed by Dunnett's t-test: ** p<0.01. […]

[1] = patients with relapsed and refractory AML; cited from earlier work

Cn1cncc1C(N)(c1ccc(Cl)cc1)c1ccc2c(c1)c(-c1cccc(Cl)c1)cc(=O)n2C (single isomer, unassigned; (+)) [Tipifarnib, (+)-6-[amino(4-chlorophenyl)(1-methyl-1H-imidazol-5-yl)methyl]-4-(3-chlorophenyl)-1-methyl-2(1H)-quinolinone]
shift of EC50 for the induction of annexin V staining (MV4-11 cells): more than eight-fold
effect on tumor growth as single agent (MV4-11 tumor xenografts; 9 days): ineffective
effect on tumor growth as single agent (MV4-11 tumor xenografts; 16 days): ineffective
response rate [1]: ~30%
